These results are taken from patent US11633477B2, “Treatment of cornea using laminin” (KYOTO PREFECTURAL PUBLIC UNIVERSITY CORPORATION, priority 2014, dated 2023).

Structures are written as SMILES. Counter-ions that a name gives are not always drawn.

The test system of the test is rabbit bullous keratopathy model. As to the kind of experiment: Adhesion of injected cells to substrate after 24 hours in rabbit bullous keratopathy model, laminin with ROCK inhibitor. It counts as in vivo. The conditions noted are these: average; 24 hours after injection of cultured RCEC into anterior chamber; Y-27632 100 μM in both groups, with or without laminin 511-E8 fragments 2.1 nM. The method, then:
A rabbit corneal endothelium was mechanically detached to make a bullous keratopathy model. Adhesion of injected cells to a substrate after 24 hours was compared between individuals injected with cultured rabbit corneal endothelial cells together with a ROCK inhibitor Y-27632 (+) (100 μM) into the anterior chamber and individuals injected with cells together with laminin 511-E8 fragments (2.1 nM) and Y-27632 (+) (100 μM). The rabbit was euthanized after 24 hours. Corneal tissue was extracted and subjected to phalloidin staining to evaluate the morphology and cell count of adhered cells.

`C[C@@H](N)[C@H]1CC[C@H](C(=O)Nc2ccncc2)CC1` [Y-27632, (R)-(+)-trans-(4-pyridyl)-4-(1-aminoethyl)-cyclohexanecarboxamide dihydrochloride monohydrate, reference compound] displayed an adhering cell density of 717.3 cells/mm^2.
